This note sets out measurements from DBAASP.

By MIC is commonly meant the lowest concentration that inhibits growth of the organism. Higher therefore signals a need for much substance.

Converted amounts (≈) assume the structure as drawn.

Test systems include Candida tropicalis; Aspergillus ustus; Fusarium solani AZN 6836; Candida glabrata; Rhizopus oryzae AZN 8892; Fusarium oxysporum; Candida krusei; Micrococcus luteus Ml11; Bacillus megaterium Bm11; Escherichia coli D21; Escherichia coli W3110; Escherichia coli DC2; Escherichia coli UB1005; Bacillus cereus; Staphylococcus aureus; Escherichia coli; Bacillus anthracis.
What all share (test): ≥ marks a high value that may be exact or a test limit, other limits are often not marked, values filed in µg/mL are converted to µM
In assay [1] the test system is Escherichia coli ATCC 25922.
The subject of assay [2] is Aspergillus fumigatus ATCC MYA-1163.
Assay [3] deals with Candida albicans ATCC 24433.
In assay [4] the test system is Cryptococcus neoformans CM133.
The subject of assay [5] is Aspergillus nidulans AZN 2867.
Assay [6] concerns Staphylococcus aureus ATCC 25923.
Assay [7] has as its system Salmonella enterica subsp. enterica serovar Enteritidis.
Assay [8] concerns Staphylococcus aureus ATCC 43300.
Assay [9] deals with Klebsiella pneumoniae ATCC 10031.
Assay [10] deals with Pseudomonas aeruginosa ATCC 27853.
For assay [11], the system named is Enterococcus faecalis ATCC 29212.
In assay [12] the test system is Bacillus subtilis ATCC 6633.
The subject of assay [13] is Candida albicans ATCC 90028.
The test system of assay [14] is Shigella flexneri ATCC 203.
In assay [15] the test system is Pseudomonas aeruginosa OT97.
For assay [16], the system named is Staphylococcus aureus Cowan 1.
The subject of assay [17] is Proteus vulgaris OX19 ATCC 6380.
Assay [18] deals with Trichosporon beigelii KCTC 7707.
Assay [19] has as its system Staphylococcus aureus JC-1.
Assay [20] deals with Trichophyton rubrum KCTC 6345.
Assay [21] relates to Malassezia furfur KCTC 7744.
In assay [22] the test system is Bacillus anthracis Sterne 34F2.
Assay [23] has as its system Burkholderia thailandensis.
In assay [24] the test system is Staphylococcus aureus UL12.
The test system of assay [25] is Bacillus subtilis ATCC 9372.
For assay [26], the system named is Staphylococcus epidermidis C621.
The subject of assay [27] is Corynebacterium xerosis C875.

As to `CC(C)C[C@@H]1NC(=O)[C@@H](NC(=O)[C@@H](N)CC(=O)O)CSSC[C@@H](C(=O)O)NC(=O)CNC(=O)[C@H](CCC(=O)O)NC(=O)[C@@H]2CSSC[C@@H]3NC(=O)[C@H](C(C)C)NC(=O)[C@H](CCCN=C(N)N)NC(=O)[C@H](CCCN=C(N)N)NC(=O)[C@@H]4CSSC[C@H](NC(=O)[C@H](CCCCN)NC(=O)[C@H](CC(C)C)NC(=O)[C@H](CO)NC(=O)[C@@H]5CCCN5C(=O)[C@H](CO)NC(=O)[C@H](CSSC[C@H](NC(=O)[C@@H]5CCCN5C(=O)CNC(=O)[C@H](CCCCN)NC(=O)[C@H](Cc5ccc(O)cc5)NC(=O)[C@H](CCCN=C(N)N)NC(=O)CNC(=O)[C@H](CO)NC1=O)C(=O)N[C@@H](C)C(=O)N[C@@H](C(C)C)C(=O)N[C@@H](Cc1c[nH]c5ccccc15)C(=O)N[C@@H](CC(=O)O)C(=O)N[C@@H](CC(N)=O)C(=O)N[C@@H](CCC(=O)O)C(=O)N[C@@H]([C@@H](C)O)C(=O)N4)NC(=O)[C@H](Cc1cnc[nH]1)NC(=O)CNC(=O)[C@H](CO)NC(=O)[C@H](CO)NC(=O)[C@H](CCCN=C(N)N)NC(=O)CNC(=O)[C@H](CCC(=O)O)NC(=O)[C@H](CCC(=O)O)NC(=O)[C@H](CCCCN)NC3=O)C(=O)N[C@@H](Cc1c[nH]c3ccccc13)C(=O)N2` [DCLSGRYKGPCAVWDNETCRRVCKEEGRSSGHCSPSLKCWCEGC], the minimal inhibitory concentration (MIC) in the assay on Candida tropicalis was no less than 50 µM; in assay [1] it was greater than 50 µM; in assay [2], 6.25 µM (≈ 30.6 µg/mL); in assay [3], no less than 50 µM; against Aspergillus ustus it was 25 µM (≈ 122 µg/mL); in assay [4], no less than 50 µM. For the same compound, the MIC in assay [5] is no less than 50 µM; in assay [6], greater than 50 µM; in [7], no less than 50 µM; against Fusarium solani AZN 6836, 25 µM (≈ 122 µg/mL); in assay [8], greater than 50 µM; against Candida glabrata it was no less than 50 µM. Moreover, the minimal inhibitory concentration (MIC) in assay [9] was no less than 50 µM; against Rhizopus oryzae AZN 8892, no less than 50 µM; in the assay on Fusarium oxysporum, 6.25 µM (≈ 30.6 µg/mL); against Candida krusei it was no less than 50 µM; in assay [10] it was greater than 50 µM; in assay [11], greater than 50 µM.

Take `CC[C@H](C)[C@H](NC(=O)[C@H](CCCCN)NC(=O)[C@@H](NC(=O)[C@@H](NC(=O)[C@H](CCC(N)=O)NC(=O)CNC(=O)[C@H](Cc1cnc[nH]1)NC(=O)[C@H](CCC(N)=O)NC(=O)[C@H](CC(N)=O)NC(=O)[C@H](CCC(N)=O)NC(=O)[C@@H](NC(=O)[C@H](CCCCN)NC(=O)[C@@H](N)Cc1ccccc1)C(C)C)C(C)C)C(C)C)C(=O)N[C@@H](Cc1ccccc1)C(=O)N[C@@H](Cc1cnc[nH]1)C(=O)N[C@@H](Cc1cnc[nH]1)C(=O)O` [FKVQNQHGQVVKIFHH]: the minimal inhibitory concentration (MIC) was 20 µM (≈ 38.9 µg/mL) in [12]; 6.3 µM (≈ 12.3 µg/mL) in assay [13]; no less than 205 µM in assay [14]; no less than 617 µM in assay [15]; no less than 1000 µM in assay [16]; no less than 1000 µM in [17]. Besides, the MIC in assay [18] was 6.3 µM (≈ 12.3 µg/mL); in [19] it was no less than 94 µM; in [20], 25 µM (≈ 48.7 µg/mL); in the assay on Micrococcus luteus Ml11 it was 23 µM (≈ 44.8 µg/mL); in the assay on Bacillus megaterium Bm11, 1.95 µM (≈ 3.8 µg/mL); in assay [21], 12.5 µM (≈ 24.3 µg/mL). The compound also displayed an MIC against Escherichia coli D21 of no less than 410 µM.

Take `CC[C@H](C)[C@H](N)C(=O)N[C@@H](CC(C)C)C(=O)NCC(=O)N1CCC[C@H]1C(=O)N[C@H](C(=O)N[C@@H](CC(C)C)C(=O)NCC(=O)N[C@@H](CC(C)C)C(=O)N[C@H](C(=O)N[C@@H](CO)C(=O)N[C@@H](CC(=O)O)C(=O)N[C@H](C(=O)N[C@@H](CC(C)C)C(=O)N[C@@H](CC(=O)O)C(=O)N[C@@H](CC(=O)O)C(=O)N[C@H](C(=O)N[C@@H](CC(C)C)C(=O)NCC(=O)N[C@H](C(=O)N[C@@H](CC(C)C)C(=O)O)[C@@H](C)CC)C(C)C)[C@@H](C)O)C(C)C)C(C)C` [ILGPVLGLVSDTLDDVLGIL]: the MIC in [22] is no less than 100 µM; in assay [23] it was no less than 50 µM; against Escherichia coli W3110, no less than 180 µM; in assay [24], no less than 180 µM; in assay [25], no less than 50 µM.

Take `CC(C)C[C@H](NC(=O)[C@H](C)NC(=O)[C@H](C)NC(=O)[C@H](C)NC(=O)[C@H](CCCCN)NC(=O)[C@@H](N)CCCCN)C(=O)N[C@@H](C)C(=O)N[C@@H](C)C(=O)N[C@@H](C)C(=O)N[C@@H](C)C(=O)N[C@@H](C)C(=O)N[C@@H](CC(C)C)C(=O)N[C@@H](C)C(=O)N[C@@H](C)C(=O)N[C@@H](Cc1c[nH]c2ccccc12)C(=O)N[C@@H](C)C(=O)N[C@@H](C)C(=O)N[C@@H](CC(C)C)C(=O)N[C@@H](C)C(=O)N[C@@H](C)C(=O)N[C@@H](C)C(=O)N[C@@H](CCCCN)C(=O)N[C@@H](CCCCN)C(=O)N[C@@H](CCCCN)C(=O)N[C@@H](CCCCN)C(N)=O` [KKAAALAAAAALAAWAALAAAKKKK]: the minimal inhibitory concentration (MIC) is 2 µM (≈ 4.76 µg/mL) in [26], 16 µM (≈ 38 µg/mL) against Escherichia coli DC2, no less than 32 µM with Escherichia coli UB1005 and 0.25 µM (≈ 0.594 µg/mL) in assay [27].

Regarding `CC[C@H](C)[C@H](NC(=O)[C@H](CC(C)C)NC(=O)[C@H](C)NC(=O)[C@@H]1CCCN1C(=O)[C@H](Cc1ccccc1)NC(=O)[C@@H](NC(=O)[C@H](CCCCN)NC(=O)[C@H](CO)NC(=O)[C@H](C)NC(=O)[C@@H](NC(=O)[C@H](CCCN=C(N)N)NC(=O)[C@H](Cc1ccccc1)NC(=O)[C@@H](NC(=O)[C@@H](NC(=O)[C@@H]1CCCN1C(=O)[C@@H](N)CC(C)C)C(C)C)C(C)C)C(C)C)C(C)C)C(=O)N[C@@H](CO)C(=O)N[C@@H](CCCCN)C(=O)N[C@@H](CC(C)C)C(=O)N[C@H](C(=O)O)[C@@H](C)O` [LPVVFRVASKVFPALISKLT], the minimal inhibitory concentration (MIC) in the assay with Bacillus cereus was no less than 117 µM; against Staphylococcus aureus it was 117 µM (≈ 256 µg/mL); in the assay with Escherichia coli, greater than 117 µM; in the assay on Bacillus anthracis, no less than 58.6 µM.
